Source: the supplement of paper PMC10307832

Columns and labels:
Test in all cases: relative viability (nuclei count vs DMSO), 5 days (fraction); higher = more cells survive
NCI-H460 = tested on: NCI-H460
How it was run: (§1)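 Lung cancer cell lines in 1536-well plates were dosed by pin tool the day after seeding, either with one drug alone or with a fixed anchor-drug dose plus five library-drug doses (not always all listed) in √10 steps. After 5 days, cells were fixed and their nuclei stained in one step (final 0.05% Triton X-100, 1% formaldehyde, 1 ug/ml Hoechst), then counted on 4× images. Relative viability is the nuclei count in treated wells divided by that in vehicle wells. Values are medians of duplicate plates.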

NCI-H1650 = tested on: NCI-H1650
How it was run: as §1

NCI-H2087 = tested on: NCI-H2087
How it was run: as §1

NCI-H596 = tested on: NCI-H596
How it was run: as §1

PC-3 [JPC-3] = tested on: PC-3 [JPC-3]
How it was run: as §1

NCI-H1915 = tested on: NCI-H1915
How it was run: as §1

NCI-H1944 = tested on: NCI-H1944
How it was run: as §1

NCI-H1792 = tested on: NCI-H1792
How it was run: as §1

CAL-12T = tested on: CAL-12T
How it was run: as §1

NCI-H2023 = tested on: NCI-H2023
How it was run: as §1

ABC-1 = tested on: ABC-1
How it was run: as §1

201T = tested on: 201T
How it was run: as §1

NCI-H520 = tested on: NCI-H520
How it was run: as §1

LCLC-97TM1 = tested on: LCLC-97TM1
How it was run: as §1

A-427 = tested on: A-427
How it was run: as §1

NCI-H441 = tested on: NCI-H441
How it was run: as §1

NCI-H661 = tested on: NCI-H661
How it was run: as §1

LC-2-ad = tested on: LC-2-ad
How it was run: as §1

NCI-H650 = tested on: NCI-H650
How it was run: as §1

H3255 = tested on: H3255
How it was run: as §1

NCI-H1651 = tested on: NCI-H1651
How it was run: as §1

NCI-H727 = tested on: NCI-H727
How it was run: as §1

BEN = tested on: BEN
How it was run: as §1

## CC1(C)CCC(c2ccc(Cl)cc2)=C(CN2CCN(c3ccc(C(=O)NS(=O)(=O)c4ccc(N[C@H](CCN5CCOCC5)CSc5ccccc5)c(S(=O)(=O)C(F)(F)F)c4)cc3)CC2)C1 [Navitoclax] + O=C(c1cc(Cc2n[nH]c(=O)c3ccccc23)ccc1F)N1CCN(C(=O)C2CC2)CC1 [Olaparib] (partner 8 µM)
NCI-H460; first compound 0.005 µM
  relative viability: 0.424
NCI-H460; first compound 0.01581 µM
  relative viability: 0.499
NCI-H460; first compound 0.05 µM
  relative viability: 0.359
NCI-H460; first compound 0.1581 µM
  relative viability: 0.388
NCI-H460; first compound 0.5 µM
  relative viability: 0.402
NCI-H1650; first compound 0.005 µM
  relative viability: 0.67
NCI-H1650; first compound 0.01581 µM
  relative viability: 0.829
NCI-H1650; first compound 0.05 µM
  relative viability: 0.803
NCI-H1650; first compound 0.1581 µM
  relative viability: 0.784
NCI-H1650; first compound 0.5 µM
  relative viability: 0.649
NCI-H2087; first compound 0.005 µM
  relative viability: 0.69
NCI-H2087; first compound 0.01581 µM
  relative viability: 0.632
NCI-H2087; first compound 0.1581 µM
  relative viability: 0.638
NCI-H2087; first compound 0.5 µM
  relative viability: 0.598
NCI-H596; first compound 0.005 µM
  relative viability: 0.663
NCI-H596; first compound 0.01581 µM
  relative viability: 0.758
NCI-H596; first compound 0.05 µM
  relative viability: 0.533
NCI-H596; first compound 0.1581 µM
  relative viability: 0.598
NCI-H596; first compound 0.5 µM
  relative viability: 0.626
PC-3 [JPC-3]; first compound 0.005 µM
  relative viability: 1.1
PC-3 [JPC-3]; first compound 0.01581 µM
  relative viability: 1.14
PC-3 [JPC-3]; first compound 0.05 µM
  relative viability: 1.22
PC-3 [JPC-3]; first compound 0.1581 µM
  relative viability: 1.07
PC-3 [JPC-3]; first compound 0.5 µM
  relative viability: 0.871
NCI-H1915; first compound 0.005 µM
  relative viability: 0.253
NCI-H1915; first compound 0.01581 µM
  relative viability: 0.247
NCI-H1915; first compound 0.05 µM
  relative viability: 0.215
NCI-H1915; first compound 0.1581 µM
  relative viability: 0.261
NCI-H1915; first compound 0.5 µM
  relative viability: 0.254
NCI-H1944; first compound 0.005 µM
  relative viability: 0.383
NCI-H1944; first compound 0.01581 µM
  relative viability: 0.403
NCI-H1944; first compound 0.1581 µM
  relative viability: 0.412
NCI-H1944; first compound 0.5 µM
  relative viability: 0.401
NCI-H1792; first compound 0.005 µM
  relative viability: 0.408
NCI-H1792; first compound 0.01581 µM
  relative viability: 0.662
NCI-H1792; first compound 0.1581 µM
  relative viability: 0.386
NCI-H1792; first compound 0.5 µM
  relative viability: 0.326
CAL-12T; first compound 0.005 µM
  relative viability: 0.715
CAL-12T; first compound 0.01581 µM
  relative viability: 0.651
CAL-12T; first compound 0.05 µM
  relative viability: 0.674
CAL-12T; first compound 0.1581 µM
  relative viability: 0.75
CAL-12T; first compound 0.5 µM
  relative viability: 0.791
NCI-H2023; first compound 0.005 µM
  relative viability: 0.445
NCI-H2023; first compound 0.01581 µM
  relative viability: 0.47
NCI-H2023; first compound 0.05 µM
  relative viability: 0.534
NCI-H2023; first compound 0.1581 µM
  relative viability: 0.442
NCI-H2023; first compound 0.5 µM
  relative viability: 0.496
ABC-1; first compound 0.005 µM
  relative viability: 0.909
ABC-1; first compound 0.01581 µM
  relative viability: 0.783
ABC-1; first compound 0.05 µM
  relative viability: 0.838
ABC-1; first compound 0.1581 µM
  relative viability: 0.859
ABC-1; first compound 0.5 µM
  relative viability: 0.776
201T; first compound 0.005 µM
  relative viability: 0.829
201T; first compound 0.01581 µM
  relative viability: 0.871
201T; first compound 0.05 µM
  relative viability: 0.806
201T; first compound 0.1581 µM
  relative viability: 0.832
201T; first compound 0.5 µM
  relative viability: 0.85
NCI-H520; first compound 0.005 µM
  relative viability: 0.346
NCI-H520; first compound 0.01581 µM
  relative viability: 0.299
NCI-H520; first compound 0.05 µM
  relative viability: 0.336
NCI-H520; first compound 0.1581 µM
  relative viability: 0.318
NCI-H520; first compound 0.5 µM
  relative viability: 0.33
LCLC-97TM1; first compound 0.005 µM
  relative viability: 0.34
LCLC-97TM1; first compound 0.01581 µM
  relative viability: 0.599
LCLC-97TM1; first compound 0.05 µM
  relative viability: 0.243
LCLC-97TM1; first compound 0.1581 µM
  relative viability: 0.409
LCLC-97TM1; first compound 0.5 µM
  relative viability: 0.445
A-427; first compound 0.005 µM
  relative viability: 0.71
A-427; first compound 0.01581 µM
  relative viability: 0.682
A-427; first compound 0.05 µM
  relative viability: 0.782
A-427; first compound 0.1581 µM
  relative viability: 0.808
A-427; first compound 0.5 µM
  relative viability: 0.737
NCI-H441; first compound 0.005 µM
  relative viability: 0.529
NCI-H441; first compound 0.01581 µM
  relative viability: 0.528
NCI-H441; first compound 0.05 µM
  relative viability: 0.627
NCI-H441; first compound 0.1581 µM
  relative viability: 0.429
NCI-H441; first compound 0.5 µM
  relative viability: 0.5
NCI-H661; first compound 0.005 µM
  relative viability: 0.751
NCI-H661; first compound 0.01581 µM
  relative viability: 0.797
NCI-H661; first compound 0.05 µM
  relative viability: 0.712
NCI-H661; first compound 0.1581 µM
  relative viability: 0.695
NCI-H661; first compound 0.5 µM
  relative viability: 0.751
LC-2-ad; first compound 0.005 µM
  relative viability: 0.729
LC-2-ad; first compound 0.01581 µM
  relative viability: 0.744
LC-2-ad; first compound 0.05 µM
  relative viability: 0.654
LC-2-ad; first compound 0.1581 µM
  relative viability: 0.698
LC-2-ad; first compound 0.5 µM
  relative viability: 0.701
NCI-H650; first compound 0.005 µM
  relative viability: 0.395
NCI-H650; first compound 0.01581 µM
  relative viability: 0.453
NCI-H650; first compound 0.05 µM
  relative viability: 0.35
NCI-H650; first compound 0.1581 µM
  relative viability: 0.362
NCI-H650; first compound 0.5 µM
  relative viability: 0.386
H3255; first compound 0.005 µM
  relative viability: 0.563
H3255; first compound 0.01581 µM
  relative viability: 0.626
H3255; first compound 0.05 µM
  relative viability: 0.57
H3255; first compound 0.1581 µM
  relative viability: 0.57
H3255; first compound 0.5 µM
  relative viability: 0.506
NCI-H1651; first compound 0.005 µM
  relative viability: 0.167
NCI-H1651; first compound 0.01581 µM
  relative viability: 0.181
NCI-H1651; first compound 0.05 µM
  relative viability: 0.152
NCI-H1651; first compound 0.1581 µM
  relative viability: 0.189
NCI-H1651; first compound 0.5 µM
  relative viability: 0.197
NCI-H727; first compound 0.005 µM
  relative viability: 0.774
NCI-H727; first compound 0.01581 µM
  relative viability: 0.769
NCI-H727; first compound 0.05 µM
  relative viability: 0.738
NCI-H727; first compound 0.1581 µM
  relative viability: 0.559
NCI-H727; first compound 0.5 µM
  relative viability: 0.721
BEN; first compound 0.005 µM
  relative viability: 1.07
BEN; first compound 0.01581 µM
  relative viability: 1.06
BEN; first compound 0.05 µM
  relative viability: 0.862
BEN; first compound 0.1581 µM
  relative viability: 1.05
BEN; first compound 0.5 µM
  relative viability: 0.595
